Values joined by “and” are separate entries in the source; they are usually repeats but may differ in a detail not shown here. Identical values can stand only once. “Also recorded” adds a separate entry of the source. Like-named read-outs stand apart in the source and are kept apart here. Values belong to the molecule of their own block, whether it stands above or below them.
Columns and labels:
Format in all cases: cell-based
[1] = tested on: DU-145 prostate cancer cells; assay: 3D clonogenic assay, parental DU-145; conditions: for IC50: Homo sapiens
Procedure: (§1) For the single agent efficacy experiment, a master stock solution of cabazitaxel was prepared by dissolving compound powder in DMSO at a concentration of 10 mM. From this a working stock solution of 0.1 mM (330-fold the highest test concentration) was prepared. Small aliquots of this solution were stored at −20° C. On each day of an experiment, a frozen aliquot of the working stock solution was thawed and stored at room temperature prior to and during treatment. First, serial half-log dilutions of the working stock solution were prepared in DMSO. These dilutions were then diluted 1:22 into cell culture medium in an intermediate dilution plate. Finally, 10 μl taken from the intermediate dilution plate were transferred to 140 μl/well of the final assay plate. Thus, the DMSO working stock was diluted 1:330, and the DMSO concentration in the assay was 0.3% v/v.
(§2) For combination experiments, working stock solutions of docetaxel, ritonavir, elacridar, and cabazitaxel were prepared in DMSO at concentrations of 660-fold the highest test concentration used. Small aliquots of this stock solution were stored at −20° C. On each day of an experiment, a frozen aliquot of the working stock solutions was thawed and stored at room temperature prior to and during treatment. First, 1:2 dilutions of 660-fold concentrated working stocks were done in DMSO (in case of monotherapy controls), or equal amounts of the compound working stocks were mixed (in case of drug combinations). Then, different dilutions of these 330-fold concentrated solutions were done in DMSO to give a 8*2 matrix combination layout. The DMSO dilutions were further diluted 1:22 into cell culture medium (IMDM, supplemented with 20% (v/v) fetal calf serum, 50 μg/ml gentamicin) in an intermediate dilution plate. Finally, 10 μl taken from the intermediate dilution plate were transferred to 140 μl of cells and medium per well of the final assay plate. Thus, the DMSO dilutions used for the mono- and the combination-treatment were diluted 1:330, and the DMSO concentration in the assay was 0.3% v/v.
(§3) DU-145 DOC10 was generated from DU-145 and 22Rv1 DOC8 was generated from 22Rv1. 22Rv1 was obtained from American Type Culture Collection (ATCC, Rockville, MD, USA), whereas DU-145 was obtained from National Cancer Institute (NCI, Bethesda, MD, USA).
(§4) Tumour cell lines were grown at 37° C. in a humidified atmosphere with 5% CO2 in RPMI 1640 medium (Biochrom) supplemented with 10% (v/v) fetal calf serum and 50 μg/ml gentamicin. Docetaxel resistant sublines were cultured in the presence of 8 nM (22Rv1) or 10 nM docetaxel (DU-145). The cells were routinely passaged once or twice weekly and maintained in culture for up to 20 passages. For the assay, cells were harvested using TrypLE and the percentage of viable cells was determined by the CASY TT cell counter (OMNI Life Science).
(§5) The clonogenic assay was carried out in a 96 well plate format using ultra low attachment plates. For each test, cells were prepared and assay plates were prepared as follows: each test well contained a layer of semi-solid medium with tumour cells (50 μl), and a second layer of medium supernatant with or without test compound (100 μl). The cell layer consisted of 2·10^3 to 3·10^3 tumour cells per well, which were seeded in 50 μl/well cell culture medium (IMDM, supplemented with 20% (v/v) fetal calf serum, 50 μg/ml gentamicin, and 0.4% (w/v) agar). After 24 h, the soft-agar layer was covered with 90 μl of the same culture medium without agar, and 10 μl of control medium or test compound after serial dilution in DMSO and transfer in cell culture medium were added, and left on the cells for the duration of the experiment (continuous exposure, 100 μl drug overlay). Every plate included six untreated control wells and drug-treated groups. Duplicate values were obtained by testing single values per condition on one plate. […]

[2] = tested on: 22Rv1 prostate cancer cells; assay: 3D clonogenic assay, parental 22Rv1; conditions: for IC50: Homo sapiens
Procedure: as §1
as §2, with “Finally, 10 μl taken from the intermediate dilution plate were transferred to 140 μl of cells and medium per well of the final assay plate. Thus, the DMSO dilutions used for the mono- and the combination-treatment were diluted 1:330, and the DMSO concentration in the assay was 0.3% v/v.” left out
Tumour cell lines were grown at 37° C. in a humidified atmosphere with 5% CO2 in RPMI 1640 medium (Biochrom) supplemented with 10% (v/v) fetal calf serum and 50 μg/ml gentamicin. […] For the assay, cells were harvested using TrypLE and the percentage of viable cells was determined by the CASY TT cell counter (OMNI Life Science). […]

[3] = tested on: DU-145 DOC10 prostate cancer cells; assay: 3D clonogenic assay, docetaxel-resistant DU-145 DOC10; conditions: for Relative Resistance to cabazitaxel / Relative Resistance to docetaxel: compared to parental DU-145 cells without ritonavir; for IC50: Homo sapiens; for Relative Resist to docetaxel: compared to parental DU-145 cells without elacridar
Procedure: as §1, §2, §3, §4, §5

[4] = tested on: 22Rv1 DOC8 prostate cancer cells; assay: 3D clonogenic assay, docetaxel-resistant 22Rv1 DOC8; conditions: for IC50: Homo sapiens; for Relative Resist to docetaxel: compared to parental 22Rv1 cells without elacridar
Procedure: as §1, §2, §3, §4, §5

[5] = tested on: DU-145 DOC10 prostate cancer cells; assay: 2D culture docetaxel resistance, DU-145 DOC10 vs DU-145; conditions: 2D setup, DU-145 cells exposed to docetaxel for 3 months
[6] = tested on: 22Rv1 DOC8 prostate cancer cells; assay: 2D culture docetaxel resistance, 22Rv1 DOC8 vs 22Rv1; conditions: 2D setup, 22Rv1 cells exposed to docetaxel for 3 months

IC50 ([3]; DU-145, DU145 DOC10, 10 μM ritonavir, read-out: IC50 value of cabazitaxel): 0.6 nM
IC50 ([3]; DU-145, DU145 DOC10, without ritonavir, read-out: IC50 value of cabazitaxel): 1.5 nM
shift of the IC50 value of cabazitaxel, monotherapy ([3]; printed: DU-145 DOC8 vs. DU-145): 2.7 fold
IC50 ([4]; 22Rv1, 22Rv1 DOC8, 10 μM ritonavir, read-out: IC50 value of cabazitaxel): 5.2 nM
IC50 ([4]; 22Rv1, 22Rv1 DOC8, 32 μM ritonavir, read-out: IC50 value of cabazitaxel): 0.7 nM
IC50 ([4]; 22Rv1, 22Rv1 DOC8, without ritonavir, read-out: IC50 value of cabazitaxel): 9.5 nM
fold higher relative IC50 value of cabazitaxel, monotherapy ([4]; printed: for 22Rv1 compared to 22Rv1): 14.5 fold
SMILES: CO[C@H]1C(=O)[C@]2(C)[C@@H](OC)C[C@H]3OC[C@@]3(OC(C)=O)[C@H]2[C@H](OC(=O)c2ccccc2)[C@]2(O)C[C@H](OC(=O)[C@H](O)[C@@H](NC(=O)OC(C)(C)C)c3ccccc3)C(C)=C1C2(C)C [cabazitaxel]
tumour cell growth inhibition, monotherapy ([1]; DU-145): inhibited tumour cell growth in a concentration dependent manner
IC50 ([1]; DU-145, DU145, 10 μM ritonavir, read-out: IC50 value of cabazitaxel): 0.3 nM
IC50 ([1]; DU-145, DU145, without ritonavir, read-out: IC50 value of cabazitaxel): 0.6 nM
tumour cell growth inhibition, monotherapy ([2]; 22Rv1): inhibited tumour cell growth in a concentration dependent manner
IC50 ([2]; 22Rv1, without ritonavir, read-out: IC50 value of cabazitaxel): 0.7 nM
Relative Resistance to cabazitaxel ([3]; DU145 DOC10, 10 μM ritonavir): 1
Relative Resistance to cabazitaxel ([3]; DU145 DOC10 without ritonavir): 2.5
tumour cell growth inhibition, monotherapy ([3]; DU-145 DOC10): inhibited tumour cell growth in a concentration dependent manner
tumour cell growth inhibition, monotherapy ([4]; 22Rv1 DOC8): inhibited tumour cell growth in a concentration dependent manner
Relative Resistance to cabazitaxel ([4]; 22Rv1 DOC8 without ritonavir, compared to parental 22Rv1 cells without ritonavir): 14

fold lower IC50 value (increase in sensitivity to docetaxel) ([3]; DU-145 DOC10, 10 μM ritonavir): 3.4 fold
fold lower IC50 value (increase in sensitivity) ([3]; DU-145 DOC10, 10 μM ritonavir, cabazitaxel experiment (FIG. 10)): 2.5 fold
IC50 ([3]; DU-145, DU-145 DOC10, 0.3 μM elacridar, read-out: IC50 value of docetaxel): 1.9 nM
IC50 ([3]; DU-145, DU-145 DOC10, 1 μM elacridar, read-out: IC50 value of docetaxel): 1.6 nM
IC50 ([3]; DU-145, DU-145 DOC10, 1 μM ritonavir, read-out: IC50 value of docetaxel): 8.8 nM
IC50 ([3]; DU-145, DU-145 DOC10, 10 μM ritonavir, read-out: IC50 value of docetaxel): 2.8 nM
IC50 ([3]; DU-145, DU-145 DOC10, without elacridar (elacridar experiment), read-out: IC50 value of docetaxel): 11.7 nM
IC50 ([3]; DU-145, DU-145 DOC10, without ritonavir, read-out: IC50 value of docetaxel): 9.5 nM
fold decrease of relative IC50 value of docetaxel ([4]; 31.6 μM ritonavir, cell line not given): 84 fold
fold lower IC50 value (increase in sensitivity) ([4]; 22Rv1 DOC8, 32 μM ritonavir, cabazitaxel experiment (FIG. 12)): 14 fold
fold lower IC50 value (increase in sensitivity to docetaxel) ([4]; 22Rv1 DOC8, 0.3 and 1 μM elacridar): 100 fold
IC50 ([4]; 22Rv1, 31.6 μM ritonavir, cell line not given, read-out: relative IC50 value of docetaxel): 2.6 nM
IC50 ([4]; 22Rv1, 22Rv1 DOC8, 0.3 μM elacridar, read-out: IC50 value of docetaxel): 1.4 nM
IC50 ([4]; 22Rv1, 22Rv1 DOC8, 1 μM elacridar, read-out: IC50 value of docetaxel): 1.3 nM
IC50 ([4]; 22Rv1, 22Rv1 DOC8, 32 μM ritonavir, read-out: Docetaxel IC50 value): 3 nM
IC50 ([4]; 22Rv1, 22Rv1 DOC8, without elacridar (elacridar experiment), read-out: IC50 value of docetaxel): 134 nM
IC50 ([4]; 22Rv1, 22Rv1 DOC8, without ritonavir, read-out: Docetaxel IC50 value): 202 nM
IC50 ([4]; 22Rv1, without ritonavir, cell line not given, read-out: relative IC50 value of docetaxel): 219 nM
SMILES: CC(=O)O[C@@]12CO[C@@H]1C[C@H](O)[C@@]1(C)C(=O)[C@H](O)C3=C(C)[C@@H](OC(=O)[C@H](O)[C@@H](NC(=O)OC(C)(C)C)c4ccccc4)C[C@@](O)([C@@H](OC(=O)c4ccccc4)[C@H]21)C3(C)C [docetaxel]
resistance to docetaxel: fold increase in IC50 value compared to parental, untreated cells [5]: ~20 fold and 21 fold and 22 fold
IC50 ([1]; DU-145, DU-145, 0.3 μM elacridar, read-out: IC50 value of docetaxel): 1.1 nM
IC50 ([1]; DU-145, DU-145, 1 μM elacridar, read-out: IC50 value of docetaxel): 1.1 nM
IC50 ([1]; DU-145, DU-145, 1 μM ritonavir, read-out: IC50 value of docetaxel): 1.8 nM
IC50 ([1]; DU-145, DU-145, 10 μM ritonavir, read-out: IC50 value of docetaxel): 1.7 nM
IC50 ([1]; DU-145, DU-145, without elacridar (elacridar experiment), read-out: IC50 value of docetaxel): 1.1 nM
IC50 ([1]; DU-145, DU-145, without ritonavir, read-out: IC50 value of docetaxel): 2.9 nM
IC50 ([2]; 22Rv1, without elacridar, from previously performed experiment, read-out: IC50 value of docetaxel): 1.3 nM
Relative Resist to docetaxel ([3]; DU-145 DOC10, 0.3 μM elacridar): 1.7
Relative Resist to docetaxel ([3]; DU-145 DOC10, 1 μM elacridar): 1.5
Relative Resistance to docetaxel ([3]; DU-145 DOC10, 1 μM ritonavir): 3.0
Relative Resistance to docetaxel ([3]; DU-145 DOC10, 10 μM ritonavir): 1.0
Relative Resist to docetaxel ([3]; DU-145 DOC10 without elacridar): 11
Relative Resistance to docetaxel ([3]; DU-145 DOC10 without ritonavir, 3D setup): 3.3
resistance to docetaxel: fold increase in IC50 value compared to parental, untreated cells [6]: > 100 fold and 105 fold and 134 fold
resistance to docetaxel, fold ([4]; 3D setup (clonogenic assay), 22Rv1 DOC8 vs parental): 42 fold
Relative Resist to docetaxel ([4]; 22Rv1 DOC8, 0.3 μM elacridar): 1.1
Relative Resist to docetaxel ([4]; 22Rv1 DOC8, 1 μM elacridar): 1
Relative Resist to docetaxel ([4]; 22Rv1 DOC8 without elacridar): 103

SMILES: COc1cc2c(cc1OC)CN(CCc1ccc(NC(=O)c3cccc4c(=O)c5cccc(OC)c5[nH]c34)cc1)CC2 [elacridar]
reversal of docetaxel resistance ([3]; DU-145 DOC10, by elacridar): reverses docetaxel resistance
reversal of docetaxel resistance ([4]; 22Rv1 DOC8, by elacridar): reverses docetaxel resistance

SMILES: CC(C)c1nc(CN(C)C(=O)N[C@H](C(=O)N[C@@H](Cc2ccccc2)C[C@H](O)[C@H](Cc2ccccc2)NC(=O)OCc2cncs2)C(C)C)cs1 [ritonavir]
ritonavir concentration that inhibits growth ([1]; DU145, ritonavir alone): ≥ 10 µM
reversal of cabazitaxel resistance ([3]; DU145 DOC10, by ritonavir): reverses cabazitaxel resistance
ritonavir concentration that inhibits growth ([3]; DU145 DOC10, ritonavir alone): ≥ 10 µM
reversal of docetaxel resistance ([3]; DU-145 DOC10, by ritonavir): reverses docetaxel resistance
tumour colony formation ([4]; 100 μM ritonavir, cell line not given): inhibited tumour colony formation completely
reversal of cabazitaxel resistance ([4]; 22Rv1 DOC8, by ritonavir): completely reverted; also recorded: reverses cabazitaxel resistance
reversal of docetaxel resistance ([4]; 22Rv1 DOC8, by ritonavir): reverses docetaxel resistance
